Assay results taken from ChEMBL document CHEMBL1201862, “PubChem BioAssay data set” (2004).
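Briefly, cells in 96-well plates were exposed to five compound concentrations for 48 h, and endpoints were estimated by linear interpolation. GI50: concentration for 50% inhibition of growth.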 The source made the active and inactive calls. No stated cut-off is given here; in the data, active = GI50 up to about 1.1 µM and inactive = higher.

Experiments:
Test in all cases: NCI tumour cell line growth inhibition, 48 h
[1] = system: T47D
[2] = system: UACC-257
[3] = system: RXF 393
[4] = system: SW-620
[5] = system: HCC 2998
[6] = system: EKVX
[7] = system: HT-29
[8] = system: MDA-MB-435
[9] = system: OVCAR-4
[10] = system: MCF7
[11] = system: SF-268
[12] = system: HOP-92
[13] = system: 786-0
[14] = system: M14
[15] = system: COLO 205
[16] = system: PC-3
[17] = system: OVCAR-3
[18] = system: IGROV-1
[19] = system: LOX IMVI

SMILES	GI50 [1]	GI50 [2]	GI50 [3]	GI50 [4]	GI50 [5]	GI50 [6]	GI50 [7]	GI50 [8]	GI50 [9]	GI50 [10]	GI50 [11]	GI50 [12]	GI50 [13]	GI50 [14]	GI50 [15]	GI50 [16]	GI50 [17]	GI50 [18]	GI50 [19]
O=C(/C=C1\C[C@H]2C=Nc3ccccc3C(=O)N2C1)NCCCCNC(=O)/C=C1\C[C@H]2C=Nc3ccccc3C(=O)N2C1	4.39 µM (inactive)	10.3 µM (inactive)	6.15 µM (inactive)	2.55 µM (inactive)	18 µM (inactive)	16.7 µM (inactive)	14.2 µM (inactive)	7.4 µM (inactive)	8.99 µM (inactive)	12.4 µM (inactive)	9.95 µM (inactive)	7.93 µM (inactive)	1.75 µM (inactive)	6.12 µM (inactive)	4.21 µM (inactive)	14.4 µM (inactive)	7.82 µM (inactive)	14.5 µM (inactive)	1.97 µM (inactive)
CC(=O)OCC1OC(O[C@@H]2c3c(O)c4c(c(O)c3C3=C(NN(c5ccc([N+](=O)[O-])cc5[N+](=O)[O-])[Se]3=O)[C@@]2(C)O)C(=O)c2ccccc2C4=O)C(OC(C)=O)C(OC(C)=O)C1OC(C)=O (stereo not given in full)	0.286 µM (active)	0.376 µM (active)	0.31 µM (active)	0.101 µM (active)	0.228 µM (active)	0.23 µM (active)	0.239 µM (active)	0.145 µM (active)	0.201 µM (active)	0.207 µM (active)	0.139 µM (active)	0.451 µM (active)	0.147 µM (active)	0.254 µM (active)	0.175 µM (active)	0.261 µM (active)	0.158 µM (active)	0.303 µM (active)	0.147 µM (active)
CCN(CC)CCC(=O)c1ccc(Cl)c(Cl)c1	18.6 µM (inactive)	46.7 µM (inactive)	12.5 µM (inactive)	19.7 µM (inactive)	43.6 µM (inactive)	> 100 µM (inactive)	32.3 µM (inactive)	17.1 µM (inactive)	47.4 µM (inactive)	12.8 µM (inactive)	20.8 µM (inactive)	14.8 µM (inactive)	17.5 µM (inactive)	42.3 µM (inactive)	27.2 µM (inactive)	32.1 µM (inactive)	> 10 µM (inactive)	39.5 µM (inactive)	15 µM (inactive)
O=C1C(NCCF)=C(Cl)C(=O)c2ncccc21	2.05 µM (inactive)	1.4 µM (inactive)	0.736 µM (active)	0.378 µM (active)	1.21 µM (inactive)	1.71 µM (inactive)	2.47 µM (inactive)	0.188 µM (active)	–	0.716 µM (active)	1.5 µM (inactive)	2.08 µM (inactive)	1.19 µM (inactive)	0.869 µM (active)	–	1.29 µM (inactive)	2.48 µM (inactive)	1.39 µM (inactive)	0.284 µM (active)
Cc1nn(C(=O)Cc2ccccc2)c2c1C(c1ccccc1[N+](=O)[O-])SC(=N)N2 (stereo not given)	> 100 µM (inactive)	> 100 µM (inactive)	–	> 100 µM (inactive)	> 100 µM (inactive)	> 100 µM (inactive)	> 100 µM (inactive)	> 100 µM (inactive)	–	> 100 µM (inactive)	> 100 µM (inactive)	–	> 100 µM (inactive)	> 100 µM (inactive)	> 100 µM (inactive)	> 100 µM (inactive)	–	> 100 µM (inactive)	> 100 µM (inactive)
Cc1cnc2sn(-c3ccc(Br)cc3)c(=O)c2c1	13.4 µM (inactive)	45.2 µM (inactive)	–	28.6 µM (inactive)	22.7 µM (inactive)	41.2 µM (inactive)	28.9 µM (inactive)	40 µM (inactive)	26.2 µM (inactive)	30.3 µM (inactive)	38.7 µM (inactive)	26.9 µM (inactive)	37.5 µM (inactive)	41.2 µM (inactive)	26.8 µM (inactive)	36.6 µM (inactive)	22.2 µM (inactive)	53.6 µM (inactive)	23.3 µM (inactive)
CN(Cc1ccccc1)Cn1ccnc1	> 60.7 µM (inactive)	22.4 µM (inactive)	> 100 µM (inactive)	> 100 µM (inactive)	–	> 85.1 µM (inactive)	29 µM (inactive)	51.4 µM (inactive)	> 100 µM (inactive)	41 µM (inactive)	> 100 µM (inactive)	25.7 µM (inactive)	72.9 µM (inactive)	20.5 µM (inactive)	33.5 µM (inactive)	> 75.9 µM (inactive)	> 100 µM (inactive)	36.2 µM (inactive)	> 88.3 µM (inactive)
CCOC(=O)c1nc2ccccc2nc1Oc1cc(OC)cc(OC)c1	> 100 µM (inactive)	> 100 µM (inactive)	53.5 µM (inactive)	> 100 µM (inactive)	–	60.1 µM (inactive)	> 100 µM (inactive)	> 100 µM (inactive)	8.49 µM (inactive)	> 100 µM (inactive)	76.7 µM (inactive)	6.81 µM (inactive)	35.5 µM (inactive)	> 100 µM (inactive)	81.5 µM (inactive)	> 100 µM (inactive)	> 100 µM (inactive)	> 100 µM (inactive)	> 100 µM (inactive)
CCOC(=O)c1c(NC(=O)c2ccccc2)c(C#N)c2n1CCCCC2	> 100 µM (inactive)	> 100 µM (inactive)	> 100 µM (inactive)	–	> 100 µM (inactive)	> 100 µM (inactive)	> 100 µM (inactive)	> 100 µM (inactive)	> 100 µM (inactive)	> 100 µM (inactive)	> 100 µM (inactive)	> 100 µM (inactive)	> 100 µM (inactive)	> 100 µM (inactive)	> 100 µM (inactive)	> 100 µM (inactive)	–	> 100 µM (inactive)	> 100 µM (inactive)
CCOC1=NC(C(F)(F)F)(C(F)(F)F)N=C(N2CCCCC2)O1	> 100 µM (inactive)	> 100 µM (inactive)	> 100 µM (inactive)	> 100 µM (inactive)	–	> 100 µM (inactive)	> 100 µM (inactive)	> 100 µM (inactive)	> 100 µM (inactive)	> 100 µM (inactive)	> 100 µM (inactive)	> 100 µM (inactive)	> 100 µM (inactive)	> 100 µM (inactive)	> 100 µM (inactive)	> 100 µM (inactive)	> 100 µM (inactive)	> 100 µM (inactive)	> 100 µM (inactive)
O=C1OC(OCC#CCOC2OC(=O)C(Cl)=C2Cl)C(Cl)=C1Cl (stereo not given)	10.7 µM (inactive)	15 µM (inactive)	–	4.45 µM (inactive)	2.8 µM (inactive)	20.1 µM (inactive)	5.6 µM (inactive)	12.2 µM (inactive)	–	6.17 µM (inactive)	18.2 µM (inactive)	–	4.86 µM (inactive)	11.2 µM (inactive)	7.41 µM (inactive)	13.7 µM (inactive)	13.9 µM (inactive)	12.9 µM (inactive)	2.65 µM (inactive)
CCOC(=O)CN1C(=O)c2ccc(NC(=O)C(=O)O)cc2S1(=O)=O	> 100 µM (inactive)	> 100 µM (inactive)	> 100 µM (inactive)	> 100 µM (inactive)	> 100 µM (inactive)	> 100 µM (inactive)	> 100 µM (inactive)	> 100 µM (inactive)	> 100 µM (inactive)	> 100 µM (inactive)	> 100 µM (inactive)	> 100 µM (inactive)	> 100 µM (inactive)	> 100 µM (inactive)	> 100 µM (inactive)	> 100 µM (inactive)	–	> 100 µM (inactive)	> 100 µM (inactive)
c1ccc(C2(c3cc4ccccc4[nH]3)OCCO2)cc1	59.8 µM (inactive)	31.6 µM (inactive)	> 100 µM (inactive)	24 µM (inactive)	–	23.9 µM (inactive)	26.1 µM (inactive)	31.4 µM (inactive)	32.2 µM (inactive)	31 µM (inactive)	47 µM (inactive)	17.3 µM (inactive)	> 100 µM (inactive)	33.3 µM (inactive)	27.9 µM (inactive)	36.6 µM (inactive)	53.5 µM (inactive)	34 µM (inactive)	38 µM (inactive)
CN1CCc2c(sc3ncn(C)c(=N)c23)C1	> 100 µM (inactive)	> 100 µM (inactive)	> 100 µM (inactive)	> 100 µM (inactive)	–	> 100 µM (inactive)	> 100 µM (inactive)	> 100 µM (inactive)	> 100 µM (inactive)	> 100 µM (inactive)	> 100 µM (inactive)	> 100 µM (inactive)	> 100 µM (inactive)	> 100 µM (inactive)	> 100 µM (inactive)	> 100 µM (inactive)	> 100 µM (inactive)	> 100 µM (inactive)	> 100 µM (inactive)
Cc1ccc(/N=N/c2c(O)ccc3cc(S(=O)(=O)O)cc(S(=O)(=O)O)c23)cc1	> 100 µM (inactive)	> 100 µM (inactive)	> 100 µM (inactive)	> 100 µM (inactive)	> 100 µM (inactive)	> 100 µM (inactive)	–	> 100 µM (inactive)	> 100 µM (inactive)	> 100 µM (inactive)	> 100 µM (inactive)	> 100 µM (inactive)	> 100 µM (inactive)	> 100 µM (inactive)	> 100 µM (inactive)	> 100 µM (inactive)	> 100 µM (inactive)	> 100 µM (inactive)	–
